How the values were obtained:
[1] = tested on: adult patients with OSA and ES; assay: MWT, 12-week placebo-controlled parallel study in OSA; type: in vivo, human; conditions: mITT
Description: The MWT is an objective test used to measure how alert a subject is during the day. The test consists of four sleep trials with two hours in between the trials. The first trial is performed 1.5-3 hours after the subject's normal wake-up time. Sensors are placed on the head, face, and chin to detect when the subject is asleep and awake during the test. The subject sits quietly in bed with his or her back and head supported by a pillow and is asked to sit still and look straight ahead while trying to stay awake as long as possible. Each trial lasts 40 minutes or until the subject is asleep for 90 seconds. Between trials, the subject stays out of bed and occupies himself or herself to remain awake. Falling asleep in an average of less than eight minutes is considered abnormal. About 40-60% of subjects with normal sleep stay awake for the entire 40 minutes of all four trials.
The study was a 12-week, double-blind, placebo-controlled, parallel design study as described in greater detail in Example 1 (Schweitzer et al., Sleep 40(Abstract Supplement):A237. Abstract 0641 (2017)). Patients were randomized (1:1:2:2:2) to APC 37.5, 75, 150, 300 mg, or placebo for 12 weeks, and were stratified by adherence or non-adherence with primary OSA therapy (adherent definition was use for ≥4 hours per night on >70% of nights). Two patient-reported measures were included as secondary efficacy outcomes to evaluate the effects of APC on functional status and work productivity and activity impairment at baseline and weeks 1, 4, 8, and 12. The Functional Outcomes of Sleep questionnaire short version (FOSQ-10) (Chasens et al., Sleep 32(7):915 (2009)) evaluated the effects of ES on functioning. The Work Productivity and Activity Impairment questionnaire for Specific Health Problems (WPAI:SHP) (Reilly et al., Pharmacoeconomics 4(5):353 (1993); Reilly, Work Productivity and Activity Impairment Questionnaire: Specific Health Problem V2.0 (WPAI: SHP). www.reillyassociates.net/WPAI_SHP) evaluated work productivity impairment among employed patients and overall activity impairment outside of work among all patients for the past 7 days. Four outcomes are available from the WPAI:SHP: Absenteeism (percent work time missed due to health); Presenteeism (percent impairment while working due to health); Percent overall work impairment (calculated from absenteeism and presenteeism); and Percent activity impairment due to health. The FOSQ-10 was evaluated as change over time compared with placebo (least squares (LS) mean); the 4 WPAI outcomes were evaluated at week 12 compared to placebo. Efficacy analyses were based on the modified intent-to-treat population (mITT) and there was no multiplicity adjustment for the FOSQ-10 or WPAI:SHP. Safety and tolerability were assessed based on treatment-emergent adverse events (TEAEs), vital signs, electrocardiogram test, physical exams, Columbia-Suicide Severity Rating Scale, and laboratory tests in the safety population.
This was a 12-week, double-blind, placebo-controlled, parallel-design study. Patients were randomized (1:1:2:2:2) to APC 37.5 mg, 75 mg, 150 mg, or 300 mg, or placebo for 12 weeks, and were stratified by adherence or nonadherence with primary OSA therapy.

[2] = tested on: adult patients with OSA and ES; assay: WPAI:SHP work productivity and activity impairment, 12-week parallel study in OSA; type: in vivo, human; conditions: 150 and 300 mg; week 12
Description: The study was a 12-week, double-blind, placebo-controlled, parallel design study as described in greater detail in Example 1 (Schweitzer et al., Sleep 40(Abstract Supplement):A237. Abstract 0641 (2017)). Patients were randomized (1:1:2:2:2) to APC 37.5, 75, 150, 300 mg, or placebo for 12 weeks, and were stratified by adherence or non-adherence with primary OSA therapy (adherent definition was use for ≥4 hours per night on >70% of nights). Two patient-reported measures were included as secondary efficacy outcomes to evaluate the effects of APC on functional status and work productivity and activity impairment at baseline and weeks 1, 4, 8, and 12. The Functional Outcomes of Sleep questionnaire short version (FOSQ-10) (Chasens et al., Sleep 32(7):915 (2009)) evaluated the effects of ES on functioning. The Work Productivity and Activity Impairment questionnaire for Specific Health Problems (WPAI:SHP) (Reilly et al., Pharmacoeconomics 4(5):353 (1993); Reilly, Work Productivity and Activity Impairment Questionnaire: Specific Health Problem V2.0 (WPAI: SHP). www.reillyassociates.net/WPAI_SHP) evaluated work productivity impairment among employed patients and overall activity impairment outside of work among all patients for the past 7 days. […]

[3] = Week 12, Combined JZP-110 doses

## NC(=O)OC[C@H](N)Cc1ccccc1 [JZP-110, (R)-2-amino-3-phenylpropyl carbamate]
[1]; Week 4, 150 mg
  MWT mean sleep latency increase from baseline >=20 minutes, subjects: 26 (24.1) n (%)
  MWT mean sleep latency increase from baseline >=25 minutes, subjects: 13 (12.0) n (%)
  MWT mean sleep latency increase from baseline >=30 minutes, subjects: 3 (2.8) n (%)
[1]; Week 4, 300 mg
  MWT mean sleep latency increase from baseline >=5 minutes, subjects: 79 (78.2) n (%)
  MWT mean sleep latency increase from baseline >=10 minutes, subjects: 63 (62.4) n (%)
  MWT mean sleep latency increase from baseline >=15 minutes, subjects: 47 (46.5) n (%)
  MWT mean sleep latency increase from baseline >=20 minutes, subjects: 32 (31.7) n (%)
  MWT mean sleep latency increase from baseline >=25 minutes, subjects: 15 (14.9) n (%)
  MWT mean sleep latency increase from baseline >=30 minutes, subjects: 5 (5.0) n (%)
[1]; Week 4, Combined JZP-110 doses
  MWT mean sleep latency increase from baseline >=5 minutes, subjects: 217 (69.1) n (%)
  MWT mean sleep latency increase from baseline >=10 minutes, subjects: 158 (50.3) n (%)
  MWT mean sleep latency increase from baseline >=15 minutes, subjects: 105 (33.4) n (%)
  MWT mean sleep latency increase from baseline >=20 minutes, subjects: 67 (21.3) n (%)
  MWT mean sleep latency increase from baseline >=25 minutes, subjects: 30 (9.6) n (%)
  MWT mean sleep latency increase from baseline >=30 minutes, subjects: 9 (2.9) n (%)
[1]; Week 12, 37.5 mg
  MWT mean sleep latency increase from baseline >=5 minutes, subjects: 18 (36.7) n (%)
  MWT mean sleep latency increase from baseline >=10 minutes, subjects: 16 (32.7) n (%)
  MWT mean sleep latency increase from baseline >=15 minutes, subjects: 10 (20.4) n (%)
  MWT mean sleep latency increase from baseline >=20 minutes, subjects: 5 (10.2) n (%)
  MWT mean sleep latency increase from baseline >=25 minutes, subjects: 0 n (%)
  MWT mean sleep latency increase from baseline >=30 minutes, subjects: 0 n (%)
[1]; Week 12, 75 mg
  MWT mean sleep latency increase from baseline >=5 minutes, subjects: 35 (64.8) n (%)
  MWT mean sleep latency increase from baseline >=10 minutes, subjects: 25 (46.3) n (%)
  MWT mean sleep latency increase from baseline >=15 minutes, subjects: 15 (27.8) n (%)
  MWT mean sleep latency increase from baseline >=20 minutes, subjects: 7 (13.0) n (%)
  MWT mean sleep latency increase from baseline >=25 minutes, subjects: 3 (5.6) n (%)
  MWT mean sleep latency increase from baseline >=30 minutes, subjects: 1 (1.9) n (%)
[1]; Week 12, 150 mg
  MWT mean sleep latency increase from baseline >=5 minutes, subjects: 71 (67.6) n (%)
  MWT mean sleep latency increase from baseline >=10 minutes, subjects: 53 (50.5) n (%)
  MWT mean sleep latency increase from baseline >=15 minutes, subjects: 39 (37.1) n (%)
  MWT mean sleep latency increase from baseline >=20 minutes, subjects: 26 (24.8) n (%)
  MWT mean sleep latency increase from baseline >=25 minutes, subjects: 13 (12.4) n (%)
  MWT mean sleep latency increase from baseline >=30 minutes, subjects: 0 n (%)
[1]; Week 12, 300 mg
  MWT mean sleep latency increase from baseline >=5 minutes, subjects: 69 (75.0) n (%)
  MWT mean sleep latency increase from baseline >=10 minutes, subjects: 60 (65.2) n (%)
  MWT mean sleep latency increase from baseline >=15 minutes, subjects: 40 (43.5) n (%)
  MWT mean sleep latency increase from baseline >=20 minutes, subjects: 26 (28.3) n (%)
  MWT mean sleep latency increase from baseline >=25 minutes, subjects: 12 (13.0) n (%)
  MWT mean sleep latency increase from baseline >=30 minutes, subjects: 6 (6.5) n (%)
[1]; [3]
  MWT mean sleep latency increase from baseline >=5 minutes, subjects: 193 (64.3) n (%)
  MWT mean sleep latency increase from baseline >=10 minutes, subjects: 154 (51.3) n (%)
  MWT mean sleep latency increase from baseline >=15 minutes, subjects: 104 (34.7) n (%)
  MWT mean sleep latency increase from baseline >=20 minutes, subjects: 64 (21.3) n (%)
  MWT mean sleep latency increase from baseline >=25 minutes, subjects: 28 (9.3) n (%)
  MWT mean sleep latency increase from baseline >=30 minutes, subjects: 7 (2.3) n (%)
[2]
  WPAI:SHP presenteeism, overall work impairment and activity impairment compared to placebo: significantly decreased lower presenteeism, overall work impairment, and activity impairment

Reference: patent publication US11865098B1, “Methods and compositions for treating excessive sleepiness” (Axsome Malta Ltd., priority 2017, dated 2024)
